{"source": "patent US20230321062A1", "about": "“COMBINATION THERAPIES” (Mirati Therapeutics, Inc., priority 2020, published 2023)", "key": {"[1]": {"system": "systemic/spleen T lymphocytes and MDSCs", "assay": "pilot studies in syngeneic mouse tumor models (immune cells)", "type": "in vivo", "description": "(§1) Receptor tyrosine kinases (RTKs) are key regulators of signaling pathways leading to cell growth, survival, and migration. These kinases are dysregulated in many cancers through overexpression, genetic alteration or co-expression with high affinity ligands. Multiple sitravatinib RTK targets are genetically altered in a variety of cancers and act as oncogenic drivers, promoting cancer development and progression."}, "CYP2C19": {"target": "CYP2C19 (Homo sapiens, UniProt P33261)", "assay": "direct CYP inhibition", "type": "in vitro ADME"}, "target RTKs [2]": {"system": "target RTKs", "assay": "cell-based assays of phosphorylation and kinase dependent function"}, "target RTKs [3]": {"system": "target RTKs", "assay": "oncogenic functions: MET-dependent cell viability and migration, endothelial tube formation and angiogenesis", "details": "endothelial tube formation, angiogenesis"}, "hERG": {"target": "hERG (Homo sapiens, UniProt Q12809)", "sequence (Q12809 whole entry)": "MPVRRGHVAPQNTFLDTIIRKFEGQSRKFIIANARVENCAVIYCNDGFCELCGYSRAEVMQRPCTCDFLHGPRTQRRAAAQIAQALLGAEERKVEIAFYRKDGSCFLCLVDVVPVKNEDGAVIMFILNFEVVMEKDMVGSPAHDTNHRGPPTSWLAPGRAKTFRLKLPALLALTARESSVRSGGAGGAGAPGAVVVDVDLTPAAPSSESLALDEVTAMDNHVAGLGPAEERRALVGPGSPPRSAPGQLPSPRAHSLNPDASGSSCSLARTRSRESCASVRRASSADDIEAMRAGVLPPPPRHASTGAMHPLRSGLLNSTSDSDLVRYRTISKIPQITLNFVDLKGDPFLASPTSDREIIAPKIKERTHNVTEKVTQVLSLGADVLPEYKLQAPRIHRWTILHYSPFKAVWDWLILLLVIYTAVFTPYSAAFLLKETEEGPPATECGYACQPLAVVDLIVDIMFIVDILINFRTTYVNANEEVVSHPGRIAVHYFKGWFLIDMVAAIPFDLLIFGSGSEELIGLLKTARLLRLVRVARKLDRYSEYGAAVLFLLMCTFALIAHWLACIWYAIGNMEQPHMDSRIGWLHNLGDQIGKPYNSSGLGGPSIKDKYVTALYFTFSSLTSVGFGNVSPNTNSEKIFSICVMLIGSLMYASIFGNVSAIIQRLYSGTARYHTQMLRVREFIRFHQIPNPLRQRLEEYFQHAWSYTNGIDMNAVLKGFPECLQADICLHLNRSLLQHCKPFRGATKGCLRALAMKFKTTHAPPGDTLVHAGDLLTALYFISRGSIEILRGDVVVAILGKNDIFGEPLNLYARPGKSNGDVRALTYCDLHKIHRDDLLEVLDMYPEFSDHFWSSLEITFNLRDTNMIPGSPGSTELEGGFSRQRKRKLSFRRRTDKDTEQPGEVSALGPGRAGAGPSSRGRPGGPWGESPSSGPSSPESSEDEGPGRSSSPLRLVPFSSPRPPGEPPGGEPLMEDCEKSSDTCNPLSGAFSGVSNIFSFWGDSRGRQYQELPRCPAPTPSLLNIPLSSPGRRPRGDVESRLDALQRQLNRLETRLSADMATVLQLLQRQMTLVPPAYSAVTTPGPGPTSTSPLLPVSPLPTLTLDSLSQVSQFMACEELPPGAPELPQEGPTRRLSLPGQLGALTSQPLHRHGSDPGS", "assay": "hERG assay (in vitro)", "type": "cell-based", "details": "read-out: IC50 on the potassium current"}, "[4]": {"system": "human tumor xenograft models", "assay": "human tumor xenograft models", "details": "mice, broad spectrum of models"}, "BCRP": {"target": "T1, BCRP (Homo sapiens, UniProt Q9UNQ0)", "T1 construct": "In a bidirectional permeability study with Caco-2 cell lines; endogenous in cells; host or cells: Caco-2", "type": "in vitro ADME"}, "cytochrome P-450": {"system": "cytochrome P-450", "type": "in vitro ADME", "details": "human"}, "CYP enzymes": {"system": "CYP enzymes", "assay": "time- or metabolism-dependent CYP inhibition", "type": "in vitro ADME"}, "[5]": {"target": "T2, Breast Cancer Resistance Protein (BCRP) (Homo sapiens, UniProt Q9UNQ0)", "T2 construct": "In a bidirectional permeability study with Caco-2 cell lines; endogenous in cells; host or cells: Caco-2", "assay": "BCRP substrate assessment in Caco-2 bidirectional permeability study", "type": "in vitro ADME"}, "P-gp": {"target": "T3, P-gp (Homo sapiens, UniProt P08183)", "T3 construct": "In a bidirectional permeability study with Caco-2 cell lines; endogenous in cells; host or cells: Caco-2", "T3 sequence (P08183 whole entry)": "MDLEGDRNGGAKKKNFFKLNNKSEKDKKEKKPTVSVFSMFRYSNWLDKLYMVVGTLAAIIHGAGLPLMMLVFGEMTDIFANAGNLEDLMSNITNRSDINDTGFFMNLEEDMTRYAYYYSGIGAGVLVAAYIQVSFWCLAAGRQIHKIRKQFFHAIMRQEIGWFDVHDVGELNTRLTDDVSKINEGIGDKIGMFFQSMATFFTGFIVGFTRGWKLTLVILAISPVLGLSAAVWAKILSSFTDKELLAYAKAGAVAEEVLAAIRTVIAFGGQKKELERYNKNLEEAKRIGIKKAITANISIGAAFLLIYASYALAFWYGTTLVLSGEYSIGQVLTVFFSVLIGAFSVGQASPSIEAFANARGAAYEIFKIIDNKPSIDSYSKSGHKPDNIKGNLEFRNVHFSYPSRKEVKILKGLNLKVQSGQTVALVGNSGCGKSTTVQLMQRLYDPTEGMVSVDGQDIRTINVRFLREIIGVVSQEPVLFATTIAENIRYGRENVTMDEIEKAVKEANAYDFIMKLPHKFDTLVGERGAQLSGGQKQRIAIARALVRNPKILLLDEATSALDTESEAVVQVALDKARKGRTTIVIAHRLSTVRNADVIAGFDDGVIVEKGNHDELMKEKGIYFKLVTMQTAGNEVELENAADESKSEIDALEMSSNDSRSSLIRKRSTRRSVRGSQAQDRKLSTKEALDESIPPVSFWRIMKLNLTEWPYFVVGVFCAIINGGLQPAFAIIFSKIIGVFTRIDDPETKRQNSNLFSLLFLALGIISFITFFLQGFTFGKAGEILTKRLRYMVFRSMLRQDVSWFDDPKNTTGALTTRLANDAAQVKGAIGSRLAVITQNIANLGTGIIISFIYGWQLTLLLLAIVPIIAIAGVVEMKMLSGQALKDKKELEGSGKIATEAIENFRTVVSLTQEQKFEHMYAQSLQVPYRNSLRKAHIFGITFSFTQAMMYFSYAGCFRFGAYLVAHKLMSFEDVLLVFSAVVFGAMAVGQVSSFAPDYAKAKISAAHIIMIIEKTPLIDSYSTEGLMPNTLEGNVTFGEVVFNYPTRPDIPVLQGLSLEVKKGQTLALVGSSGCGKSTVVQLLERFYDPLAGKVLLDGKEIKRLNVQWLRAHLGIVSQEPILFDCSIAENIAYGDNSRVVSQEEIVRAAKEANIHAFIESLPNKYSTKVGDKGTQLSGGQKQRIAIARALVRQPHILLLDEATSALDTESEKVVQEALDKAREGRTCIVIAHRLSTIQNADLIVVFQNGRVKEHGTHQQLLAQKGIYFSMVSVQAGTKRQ", "type": "in vitro ADME"}, "Caco-2 cell lines": {"system": "Caco-2 cell lines", "assay": "bidirectional permeability study with Caco-2 cell lines", "type": "in vitro ADME", "details": "Caco-2 bidirectional"}, "PD-L1 on tumor cells": {"system": "PD-L1 on tumor cells", "assay": "PD-L1 expression on tumor cells in vitro and in vivo", "type": "cell-based", "description": "as §1"}, "CYP2E1": {"target": "CYP2E1 (Homo sapiens, UniProt P05181)", "sequence (P05181 whole entry)": "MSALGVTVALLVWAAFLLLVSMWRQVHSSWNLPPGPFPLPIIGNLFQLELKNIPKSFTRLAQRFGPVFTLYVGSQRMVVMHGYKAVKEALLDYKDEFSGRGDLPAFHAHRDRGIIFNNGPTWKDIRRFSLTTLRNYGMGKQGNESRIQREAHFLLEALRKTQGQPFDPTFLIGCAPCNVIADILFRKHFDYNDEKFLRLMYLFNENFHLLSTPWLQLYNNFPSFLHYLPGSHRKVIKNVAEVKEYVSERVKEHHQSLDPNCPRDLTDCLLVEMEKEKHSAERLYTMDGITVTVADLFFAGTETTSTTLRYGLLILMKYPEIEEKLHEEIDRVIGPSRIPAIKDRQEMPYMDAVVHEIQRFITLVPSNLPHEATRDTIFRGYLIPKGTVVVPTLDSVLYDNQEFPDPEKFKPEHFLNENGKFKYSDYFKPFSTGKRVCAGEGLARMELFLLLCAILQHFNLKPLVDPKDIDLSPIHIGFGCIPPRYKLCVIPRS", "assay": "direct CYP inhibition", "type": "in vitro ADME"}, "human plasma proteins": {"system": "human plasma proteins", "type": "in vitro ADME"}, "CYP2A6": {"target": "CYP2A6 (Homo sapiens, UniProt P11509)", "sequence (P11509 whole entry)": "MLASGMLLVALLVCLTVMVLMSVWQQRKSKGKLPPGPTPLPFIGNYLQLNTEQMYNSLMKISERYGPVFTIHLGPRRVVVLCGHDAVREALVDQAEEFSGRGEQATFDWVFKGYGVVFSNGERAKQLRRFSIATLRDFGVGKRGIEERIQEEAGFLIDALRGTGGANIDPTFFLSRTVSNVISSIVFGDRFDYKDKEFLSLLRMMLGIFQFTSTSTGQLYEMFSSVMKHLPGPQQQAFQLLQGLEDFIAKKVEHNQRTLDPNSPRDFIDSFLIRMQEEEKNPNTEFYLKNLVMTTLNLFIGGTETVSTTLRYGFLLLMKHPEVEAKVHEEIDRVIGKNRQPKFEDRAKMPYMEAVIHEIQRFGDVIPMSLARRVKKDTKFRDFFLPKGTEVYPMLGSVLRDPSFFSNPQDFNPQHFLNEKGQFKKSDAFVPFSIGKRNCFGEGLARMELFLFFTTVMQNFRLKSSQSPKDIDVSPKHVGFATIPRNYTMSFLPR", "assay": "direct CYP inhibition", "type": "in vitro ADME"}, "[6]": {"assay": "pharmacokinetics after single dose of sitravatinib free base capsules", "type": "in vivo"}, "P-glycoprotein (P-gp)": {"target": "T4, P-glycoprotein (P-gp) (Homo sapiens, UniProt P08183)", "T4 construct": "In a bidirectional permeability study with Caco-2 cell lines; endogenous in cells; host or cells: Caco-2", "assay": "P-gp substrate assessment in Caco-2 bidirectional permeability study", "type": "in vitro ADME"}, "CYP2B6": {"target": "CYP2B6 (Homo sapiens, UniProt P20813)", "sequence (P20813 whole entry)": "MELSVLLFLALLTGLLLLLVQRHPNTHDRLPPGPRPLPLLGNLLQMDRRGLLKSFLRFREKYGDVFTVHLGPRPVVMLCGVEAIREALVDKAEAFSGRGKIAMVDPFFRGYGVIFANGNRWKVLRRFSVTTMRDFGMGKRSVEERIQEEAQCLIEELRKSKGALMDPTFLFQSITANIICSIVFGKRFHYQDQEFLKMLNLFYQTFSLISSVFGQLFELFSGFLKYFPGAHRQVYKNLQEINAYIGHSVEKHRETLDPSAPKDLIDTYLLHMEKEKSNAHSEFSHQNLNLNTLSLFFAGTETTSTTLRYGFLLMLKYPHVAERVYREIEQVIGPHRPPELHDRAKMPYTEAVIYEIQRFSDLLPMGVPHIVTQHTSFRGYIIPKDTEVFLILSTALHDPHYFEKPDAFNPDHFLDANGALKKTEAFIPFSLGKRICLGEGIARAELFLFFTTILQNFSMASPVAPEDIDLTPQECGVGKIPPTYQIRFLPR", "assay": "direct CYP inhibition", "type": "in vitro ADME"}, "CYP2C8": {"target": "CYP2C8 (Homo sapiens, UniProt P10632)", "sequence (P10632 whole entry)": "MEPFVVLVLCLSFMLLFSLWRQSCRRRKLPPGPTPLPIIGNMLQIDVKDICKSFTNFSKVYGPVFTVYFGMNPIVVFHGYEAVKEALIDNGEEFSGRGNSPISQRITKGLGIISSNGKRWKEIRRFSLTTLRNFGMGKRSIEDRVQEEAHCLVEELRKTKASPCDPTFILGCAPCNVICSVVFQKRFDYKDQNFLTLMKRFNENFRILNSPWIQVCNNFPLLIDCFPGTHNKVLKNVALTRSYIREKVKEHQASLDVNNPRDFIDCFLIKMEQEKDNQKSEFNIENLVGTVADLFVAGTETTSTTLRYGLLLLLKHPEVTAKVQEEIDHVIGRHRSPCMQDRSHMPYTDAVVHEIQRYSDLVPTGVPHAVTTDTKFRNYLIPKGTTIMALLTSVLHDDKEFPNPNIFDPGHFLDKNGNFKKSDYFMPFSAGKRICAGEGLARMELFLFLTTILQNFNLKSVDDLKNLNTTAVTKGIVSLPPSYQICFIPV", "assay": "direct CYP inhibition", "type": "in vitro ADME"}, "in vivo": {"assay": "in vivo", "parameters": "species or system dogs", "details": "dog"}, "CYP2C9": {"target": "CYP2C9 (Homo sapiens, UniProt P11712)", "sequence (P11712 whole entry)": "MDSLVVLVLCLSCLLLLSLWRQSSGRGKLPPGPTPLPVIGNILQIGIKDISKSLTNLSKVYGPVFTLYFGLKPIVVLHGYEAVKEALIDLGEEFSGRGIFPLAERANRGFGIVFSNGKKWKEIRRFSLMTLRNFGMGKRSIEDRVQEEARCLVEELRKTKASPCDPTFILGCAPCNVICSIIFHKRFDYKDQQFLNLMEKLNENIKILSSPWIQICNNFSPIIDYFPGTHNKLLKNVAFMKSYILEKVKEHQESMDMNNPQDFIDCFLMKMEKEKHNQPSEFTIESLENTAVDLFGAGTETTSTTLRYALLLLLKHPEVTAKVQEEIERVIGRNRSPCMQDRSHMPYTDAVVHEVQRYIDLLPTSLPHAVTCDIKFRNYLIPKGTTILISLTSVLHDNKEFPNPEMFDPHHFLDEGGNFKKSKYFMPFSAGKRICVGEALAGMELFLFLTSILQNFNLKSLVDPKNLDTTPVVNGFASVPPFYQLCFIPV", "assay": "direct CYP inhibition", "type": "in vitro ADME"}, "[7]": {"system": "MET, Axl, MERTK, VEGFR family, PDGFR family, KIT, FLT3, Trk family, RET, DDR2, and selected Eph family members"}, "CYP1A2": {"target": "CYP1A2 (Homo sapiens, UniProt P05177)", "assay": "direct CYP inhibition", "type": "in vitro ADME"}, "[8]": {"assay": "neurological functional observation battery and respiratory evaluations", "type": "in vivo", "details": "rats, doses up to 25 mg/kg"}, "CYP2D6": {"target": "CYP2D6 (Homo sapiens, UniProt P10635)", "assay": "direct CYP inhibition", "type": "in vitro ADME"}, "[9]": {"system": "RET, CBL, CHR4q12, DDR and Trk", "details": "cited from earlier work"}, "[10]": {"details": "cited from earlier work"}, "Nectin-4": {"target": "T5, Nectin-4 (Homo sapiens, UniProt Q96NY8)", "T5 construct": "host or cells: cells that express Nectin-4", "T5 sequence (Q96NY8 32-510)": "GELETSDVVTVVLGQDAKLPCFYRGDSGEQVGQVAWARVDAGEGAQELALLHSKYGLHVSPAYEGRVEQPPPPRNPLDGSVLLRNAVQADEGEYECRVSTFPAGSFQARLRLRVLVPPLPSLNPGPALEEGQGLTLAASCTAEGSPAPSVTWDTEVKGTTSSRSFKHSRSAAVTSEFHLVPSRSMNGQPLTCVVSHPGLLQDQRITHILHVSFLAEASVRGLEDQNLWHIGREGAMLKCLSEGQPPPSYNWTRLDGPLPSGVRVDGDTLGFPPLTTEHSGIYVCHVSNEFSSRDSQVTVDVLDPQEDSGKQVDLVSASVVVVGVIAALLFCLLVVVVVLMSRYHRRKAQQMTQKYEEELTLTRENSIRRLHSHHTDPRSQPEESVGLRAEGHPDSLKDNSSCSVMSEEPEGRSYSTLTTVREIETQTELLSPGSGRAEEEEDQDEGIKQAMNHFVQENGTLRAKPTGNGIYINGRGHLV", "details": "cited from earlier work"}, "Urothelial Carcinoma [11]": {"system": "Urothelial Carcinoma", "details": "EV-201; cited from earlier work"}, "Urothelial Carcinoma [12]": {"system": "Urothelial Carcinoma", "details": "cited from earlier work"}}, "note": "Like-named read-outs stand apart in the source and are kept apart here."}
{"compound": "COCCNCc1ccc(-c2cc3nccc(Oc4ccc(NC(=O)C5(C(=O)Nc6ccc(F)cc6)CC5)cc4F)c3s2)nc1", "note": "[sitravatinib, N-(3-Fluoro-4-(2-(5-((2-methoxyethylamino)methyl)pyridin-2-yl)thieno[3,2-b]pyridin-7-yloxy)phenyl)-N-(4-fluorophenyl)cyclopropane-1,1-dicarboxamide]", "values": [{"measurement": "systemic MDSCs", "setting": "[1]", "value": "reduces the number"}, {"measurement": "systemic/spleen CD4+ and CD8+ T lymphocytes", "setting": "[1]", "value": "increases the proliferation and fraction"}, {"measurement": "IC50", "setting": "CYP2C19", "value": 10000, "unit": "nM"}, {"measurement": "phosphorylation and kinase dependent function", "setting": "target RTKs [2]", "value": "inhibited phosphorylation and kinase dependent function"}, {"measurement": "oncogenic functions associated with target RTKs", "setting": "target RTKs [3]", "value": "inhibited oncogenic functions"}, {"measurement": "IC50", "setting": "hERG", "value": 600, "unit": "nM"}, {"measurement": "anti-tumor activity in human xenograft tumor models", "setting": "[4]", "value": "anti tumor efficacy"}, {"measurement": "anti-tumor activity in human xenograft tumor models", "setting": "[4]; listed as Sitravatinib", "value": "tumor regression"}, {"measurement": "IC50", "setting": "BCRP", "value": 1510, "unit": "nM"}, {"measurement": "CYP enzymes involved in metabolism", "setting": "cytochrome P-450", "value": "multiple enzymes, including CYP 1A2, 2A6, 2B6, 2C8, 2C9, 2D6, 2E1, and 3A4 are involved"}, {"measurement": "time- or metabolism-dependent inhibition of any of the CYP enzymes evaluated", "setting": "CYP enzymes", "value": "little or no evidence"}, {"measurement": "substrate of BCRP", "setting": "[5]", "value": "not a substrate"}, {"measurement": "IC50", "setting": "P-gp", "value": 838, "unit": "nM"}, {"measurement": "permeability classification", "setting": "Caco-2 cell lines", "value": "highly permeable"}, {"measurement": "expression of PD-L1 on tumor cells", "setting": "PD-L1 on tumor cells", "value": "increase expression of PD-L1"}, {"measurement": "direct inhibition of CYP2E1", "setting": "CYP2E1", "value": "little or no evidence"}, {"measurement": "bound to human plasma proteins", "setting": "human plasma proteins", "value": 98.6, "unit": "%"}, {"measurement": "direct inhibition of CYP2A6", "setting": "CYP2A6", "value": "little or no evidence"}, {"measurement": "dose proportionality of Cmax and AUC", "setting": "[6]; doses up to 200 mg", "value": "dose proportional"}, {"measurement": "half-life", "setting": "[6]; human, in vivo, oral administration, read-out: mean elimination half life", "value": "42 to 58", "unit": "h"}, {"measurement": "substrate of P-gp", "setting": "P-glycoprotein (P-gp)", "value": "not a substrate"}, {"measurement": "IC50", "setting": "CYP2B6", "value": "> 20000", "unit": "nM"}, {"measurement": "inhibition at 20 µM", "setting": "CYP2B6; human, highest concentration evaluated (20 μM)", "value": "~50", "unit": "%"}, {"measurement": "IC50", "setting": "CYP2C8", "value": 2900, "unit": "nM"}, {"measurement": "vascular pressures", "setting": "in vivo", "value": "Minor increases"}, {"measurement": "concentration at 6 hr", "setting": "in vivo; 4 mg/kg", "value": 72, "unit": "ng/mL"}, {"measurement": "IC50", "setting": "CYP2C9", "value": 11000, "unit": "nM"}, {"measurement": "inhibition of kinase activity", "setting": "[7]; biochemical assays", "value": "potent, concentration-dependent inhibition"}, {"measurement": "potency against intended clinical targets", "setting": "[7]; generally", "value": "less than 0.1 μM"}, {"measurement": "direct inhibition of CYP1A2", "setting": "CYP1A2", "value": "little or no evidence"}, {"measurement": "neurological functional observation battery and respiratory evaluations (tidal volume, respiration rate, minute volume)", "setting": "[8]", "value": "did not reveal any sitravatinib related effects"}, {"measurement": "IC50", "setting": "CYP2D6", "value": 1900, "unit": "nM"}, {"measurement": "inhibition of a closely related spectrum of tyrosine kinases", "setting": "[9]", "value": "potent inhibition"}]}
{"compound": "enfortumab: Nectin-4 directed ADC: fully human anti-Nectin-4 IgG1 kappa antibody (AGS-22C3) conjugated to MMAE via protease-cleavable maleimidocaproyl valine-citrulline linker", "values": [{"measurement": "steady-state concentrations reached after", "setting": "[10]; 1.25 mg/kg Q3W regimen", "value": 1, "unit": "treatment cycle"}, {"measurement": "exposure (AUC) in mild, moderate or severe renal impairment compared to normal renal function", "setting": "[10]; 1.25 mg/kg enfortumab", "value": "No significant differences"}, {"measurement": "dose proportionality of PK", "setting": "[10]; 0.5 to 1.25 mg/kg, days 1, 8, 15 of 28-day cycle", "value": "linear dose-proportional PK"}, {"measurement": "elimination half-life", "setting": "[10]; after enfortumab dosing", "value": 81.6, "unit": "h"}, {"measurement": "estimated mean volume of distribution at steady state (Vss)", "setting": "[10]; following administration of enfortumab", "value": 11, "unit": "L"}, {"measurement": "accumulation following repeat administration of enfortumab", "setting": "[10]; in vivo", "value": "minimal accumulation"}, {"measurement": "time of peak concentrations", "setting": "[10]; intravenous infusion", "value": "end of infusion"}, {"measurement": "mean clearance (CL)", "setting": "[10]; patients, after enfortumab dosing", "value": 0.10, "unit": "L/h"}, {"measurement": "differences in pharmacokinetics based on age, sex, or race/ethnicity", "setting": "[10]; population PK", "value": "no clinically significant differences"}, {"measurement": "affinity of binding to cells that express Nectin-4", "setting": "Nectin-4", "value": "high affinity"}, {"measurement": "complete response rate", "setting": "Urothelial Carcinoma [11]", "value": 12, "unit": "%"}, {"measurement": "median DOR", "setting": "Urothelial Carcinoma [11]", "value": 7.6, "unit": "months"}, {"measurement": "median overall survival", "setting": "Urothelial Carcinoma [11]", "value": 11.7, "unit": "months"}, {"measurement": "overall ORR as confirmed by central review", "setting": "Urothelial Carcinoma [11]", "value": 44, "unit": "%"}, {"measurement": "overall ORR as confirmed by central review", "setting": "Urothelial Carcinoma [12]; EV-103 (pembrolizumab and enfortumab used in combination)", "value": 73, "unit": "%"}, {"measurement": "median DOR", "setting": "Urothelial Carcinoma [12]; EV-103, median follow-up 10.4 months", "value": "not reached"}, {"measurement": "12-month overall survival rate", "setting": "Urothelial Carcinoma [12]; EV-103", "value": 82, "unit": "%"}, {"measurement": "complete response rate", "setting": "Urothelial Carcinoma [12]; EV-103", "value": 16, "unit": "%"}, {"measurement": "median overall survival", "setting": "Urothelial Carcinoma [12]; EV-103", "value": "not reached"}]}
